From publication PMC7367283, “A PIP2 substitute mediates voltage sensor-pore coupling in KCNQ activation” (Communications Biology, 2020)
Several values for one entry are separate records, joined by “and”; a condition that tells them apart may be missing. Equal values may be shown once.

Target: IKs (KCNQ1 + KCNE1) (Homo sapiens, UniProt P51787)
Assay: Two-electrode voltage clamp of IKs channels expressed in Xenopus oocytes
Type: cell-based
Design: key to G/Gcontrol(max): conductance / max control conductance (control max = 1)
Details: for Current: Fig. 4g; for ∆V1/2 of activation induced by CP1 (mean): Fig. 4i dose response; for G/Gcontrol(max): Fig. 4h
Text: Our previous studies have shown that the VSD of KCNQ1 activates to an intermediate state (I state) and an activated state (A state) upon membrane depolarization, and the pore can open when VSD is at either the intermediate (IO state) or activated (AO state)[23],[24]. The association of the auxiliary subunit KCNE1 with KCNQ1 affects VSD-pore coupling to suppress the IO state and enhance the AO state. Correspondingly, the association of KCNE1 also increases the PIP2 sensitivity of the channel[24],[37]. […] The most prominent effect of CP1 is to dramatically slow the deactivation of IKs, such that at 2 µM CP1, it took a 100-s interval at −120 mV for all the channels to deactivate from their previous activation (Fig. 4a). The application of 2 µM CP1 shifted the G–V relation to more negative voltages by ~13 mV (Fig. 4b). […] A fraction of the constitutively open channels might have been open during the previous test pulses and not deactivated during the shorter and less-hyperpolarized interval pulse to cause a current accumulation. […] In higher concentrations of CP1, we were not able to suppress the constitutive opening of KCNQ1 channels even with long and negative interval voltages, so that we used 20-s and −80-mV interval pulses in the recordings (Fig. 4e). […] In comparison with KCNQ1 expressed alone, CP1 caused a larger shift of the G–V relationship when KCNE1 was co-expressed (Fig. 4i). Since the IKs currents were difficult to measure accurately at high CP1 concentrations, we were unable to determine the EC50 of the channel response to CP1.
Fig. 4 Effects of CP1 on IKs channels. a, b IKs currents in the absence (left) and presence of 2 µM CP1 (right) recorded with 100-s and −120-mV interval pulses between testing voltages. Holding potential: −80 mV; testing potential: −120 to +80 mV; returning potential: −40 mV (a). G–V relations (b). c, d IKs recorded at the same conditions as in (a), except for the interval pulses, was 20 s at −80 mV. e, f IKs in the absence or presence of 10 µM CP1. The voltage protocol was the same as in (b). g, h Current (g) and relative conductance (h) increases of IKs channels by 10 µM CP1. In h, the measured conductance in CP1 at all voltages was divided by the maximum measured conductance in control, and then normalized with the maximum measured conductance in control being 1. i Dose response for ΔV1/2 of G–V relations to different CP1 concentrations as compared with those of KCNQ1 (dashed line).
The use of Xenopus laevis to obtain oocytes was approved by the Washington University Animal Studies Committee (protocol #20190030). Oocytes were manually dispersed and digested with collagenase (0.5 mg/ml, Sigma-Aldrich, Saint Louis, MO) to remove the follicle cell layer. Stage V or VI oocytes were selected and injected with cRNAs (9.2 ng) of channel or mutations. Especially, to characterize IKs, a mix of cRNAs at a molar ratio 4:1 (KCNQ1:KCNE1) was injected. For KCNQ2/KCNQ3, the molar ratio was 1:1 (KCNQ2:KCNQ3). For sodium channels, a 3:1 molar ratio (β1:NaV1.5) and for calcium channels a weight ratio 1:1:1 (β1:α2/δ1:CaV1.2) was injected, respectively. Injected oocytes were incubated in ND96 solution containing (in mM) 96 NaCl, 2 KCl, 1.8 CaCl2, 1 MgCl2, and 5 HEPES, pH 7.6, supplemented with 2.5 mM Na pyruvate and 1% penicillin–streptomycin, at 18 °C for 3–7 days before recording.
The whole-oocyte ionic currents were recorded with a GeneClamp 500B amplifier (Axon Instruments, CA) or iTEV90 amplifier (HEKA, Germany) and then sampled at 1 kHz and low-pass-filtered at 2 kHz. The Patchmaster software (HEKA, Germany) was used to acquire data. The Kir1.1 current was recorded with a high K^+ bath solution containing (in mM) 96 KCl, 4 NaCl, 1 CaCl2, 2 MgCl2, and 10 HEPES, pH 7.3–7.4. The HCN4 current was recorded in ND66 solution containing (in mM) 66 NaCl, 32 KCl, 1.8 CaCl2, 1 MgCl2, and 5 HEPES, pH 7.6. All the other potassium channels were recorded in ND96 solution. […]

O=S(=O)([O-])Oc1c(-c2sc3c(ccc4cccc(Cl)c43)c2OS(=O)(=O)[O-])[nH]c2ccc(Br)cc12.[Na+].[Na+] [CP1, DISODIUM 5-BROMO-2-[9-CHLORO-3-(SULFONATOOXY) NAPHTHO [1,2-B] THIEN-2-YL]-1H-INDOL-3-YL SULFATE]
shift of G–V relation (2 µM CP1, 20-s and −80-mV interval pulses): ~ 12 mV
shift of G–V relation to more negative voltages (2 µM CP1, 100-s and −120-mV interval pulses): ~ 13 mV
outward current (Icp1/Ictrl) (10 µM CP1, Q1/E1, at +40 mV, individual oocytes): 3.3641 and 3.7408 and 2.3715 and 2.9989 and 4.6393
∆V1/2 (10 µM CP1, Q1/E1, individual oocytes): 64.6738 mV and 84.3167 mV and 109.16 mV and 34.9084 mV and 123.145 mV
τ deact at -120 mV (10 µM CP1 treated, Q1/E1, individual oocytes): 3.5736 s and 3.9322 s and 2.999 s and 3.0124 s and 2.7649 s and 3.45 s and 3.7957 s
G/Gmax Mean (Fig. 4b, 2 µM CP1, 0 mV): 0.3833
G/Gmax Mean (Fig. 4b, 2 µM CP1, 20 mV): 0.7035
G/Gmax Mean (Fig. 4b, 2 µM CP1, 40 mV): 0.9619
G/Gmax Mean (Fig. 4b, 2 µM CP1, 60 mV): 1.0000
G/Gmax Mean (Fig. 4b, 2 µM CP1, -20 mV): 0.1567
G/Gmax Mean (Fig. 4b, 2 µM CP1, -40 mV): 0.0500
G/Gmax Mean (Fig. 4b, 2 µM CP1, -60 mV): 0.0188
G/Gmax Mean (Fig. 4b, 2 µM CP1, -80 mV): 0.0090
G/Gmax Mean (Fig. 4b, 2 µM CP1, -100 mV): 0.0050
G/Gmax Mean (Fig. 4b, 2 µM CP1, -120 mV): 0.0140
G/Gmax Mean (Fig. 4f, 10 µM CP1, 0 mV): 0.9498
G/Gmax Mean (Fig. 4f, 10 µM CP1, 10 mV): 0.9622
G/Gmax Mean (Fig. 4f, 10 µM CP1, 20 mV): 0.9768
G/Gmax Mean (Fig. 4f, 10 µM CP1, 30 mV): 0.9888
G/Gmax Mean (Fig. 4f, 10 µM CP1, 40 mV): 0.9959
G/Gmax Mean (Fig. 4f, 10 µM CP1, 50 mV): 1.0000
G/Gmax Mean (Fig. 4f, 10 µM CP1, 60 mV): 0.9995
G/Gmax Mean (Fig. 4f, 10 µM CP1, 70 mV): 0.9975
G/Gmax Mean (Fig. 4f, 10 µM CP1, 80 mV): 0.9882
G/Gmax Mean (Fig. 4f, 10 µM CP1, -10 mV): 0.9293
G/Gmax Mean (Fig. 4f, 10 µM CP1, -20 mV): 0.9108
G/Gmax Mean (Fig. 4f, 10 µM CP1, -30 mV): 0.8947
G/Gmax Mean (Fig. 4f, 10 µM CP1, -40 mV): 0.8796
G/Gmax Mean (Fig. 4f, 10 µM CP1, -50 mV): 0.8652
G/Gmax Mean (Fig. 4f, 10 µM CP1, -60 mV): 0.8490
G/Gmax Mean (Fig. 4f, 10 µM CP1, -70 mV): 0.8309
G/Gmax Mean (Fig. 4f, 10 µM CP1, -80 mV): 0.8109
G/Gmax Mean (Fig. 4f, 10 µM CP1, -90 mV): 0.7850
G/Gmax Mean (Fig. 4f, 10 µM CP1, -100 mV): 0.7801
G/Gmax Mean (Fig. 4f, 10 µM CP1, -110 mV): 0.7703
G/Gmax Mean (Fig. 4f, 10 µM CP1, -120 mV): 0.7614
Current (10 µM CP1, 0 mV): 11.3690 µA
Current (10 µM CP1, 10 mV): 13.1145 µA
Current (10 µM CP1, 20 mV): 14.8276 µA
Current (10 µM CP1, 30 mV): 16.4399 µA
Current (10 µM CP1, 40 mV): 17.8196 µA
Current (10 µM CP1, 50 mV): 18.8339 µA
Current (10 µM CP1, 60 mV): 19.4658 µA
Current (10 µM CP1, 70 mV): 19.7856 µA
Current (10 µM CP1, 80 mV): 19.9691 µA
Current (10 µM CP1, -10 mV): 9.6451 µA
Current (10 µM CP1, -20 mV): 8.0042 µA
Current (10 µM CP1, -30 mV): 6.4510 µA
Current (10 µM CP1, -40 mV): 5.0169 µA
Current (10 µM CP1, -50 mV): 3.6974 µA
Current (10 µM CP1, -60 mV): 2.5078 µA
Current (10 µM CP1, -70 mV): 1.4333 µA
Current (10 µM CP1, -80 mV): 0.5290 µA
Current (10 µM CP1, -90 mV): -0.3014 µA
Current (10 µM CP1, -100 mV): -0.9865 µA
Current (10 µM CP1, -110 mV): -1.5545 µA
Current (10 µM CP1, -120 mV): -2.0910 µA
∆V1/2 of activation induced by CP1 (mean) ([CP1] 1 µM): 14.4504 mV
∆V1/2 of activation induced by CP1 (mean) ([CP1] 2 µM): 15.8525 mV
∆V1/2 of activation induced by CP1 (mean) ([CP1] 3 µM): 21.4391 mV
∆V1/2 of activation induced by CP1 (mean) ([CP1] 5 µM): 41.6182 mV
∆V1/2 of activation induced by CP1 (mean) ([CP1] 6 µM): 46.8783 mV
∆V1/2 of activation induced by CP1 (mean) ([CP1] 10 µM): 97.2701 mV
∆V1/2 of activation induced by CP1 (mean) ([CP1] 15 µM): 120.8217 mV
∆V1/2 of activation induced by CP1 (mean) ([CP1] 20 µM): 143.8484 mV
∆V1/2 of activation induced by CP1 (mean) ([CP1] 25 µM): 174.0381 mV
G/Gcontrol(max) (10 µM CP1, 0 mV): 2.2457
G/Gcontrol(max) (10 µM CP1, 10 mV): 2.2822
G/Gcontrol(max) (10 µM CP1, 20 mV): 2.3257
G/Gcontrol(max) (10 µM CP1, 30 mV): 2.3635
G/Gcontrol(max) (10 µM CP1, 40 mV): 2.3895
G/Gcontrol(max) (10 µM CP1, 50 mV): 2.4063
G/Gcontrol(max) (10 µM CP1, 60 mV): 2.4120
G/Gcontrol(max) (10 µM CP1, 70 mV): 2.4121
G/Gcontrol(max) (10 µM CP1, 80 mV): 2.3902
G/Gcontrol(max) (10 µM CP1, -10 mV): 2.1869
G/Gcontrol(max) (10 µM CP1, -20 mV): 2.1346
G/Gcontrol(max) (10 µM CP1, -30 mV): 2.0892
G/Gcontrol(max) (10 µM CP1, -40 mV): 2.0471
G/Gcontrol(max) (10 µM CP1, -50 mV): 2.0074
G/Gcontrol(max) (10 µM CP1, -60 mV): 1.9645
G/Gcontrol(max) (10 µM CP1, -70 mV): 1.9185
G/Gcontrol(max) (10 µM CP1, -80 mV): 1.8692
G/Gcontrol(max) (10 µM CP1, -90 mV): 1.8061
G/Gcontrol(max) (10 µM CP1, -100 mV): 1.7954
G/Gcontrol(max) (10 µM CP1, -110 mV): 1.7738
G/Gcontrol(max) (10 µM CP1, -120 mV): 1.7540
G/Gmax Mean (Fig. 4d, 2 µM CP1, 0 mV): 0.2264
G/Gmax Mean (Fig. 4d, 2 µM CP1, 20 mV): 0.4604
G/Gmax Mean (Fig. 4d, 2 µM CP1, 40 mV): 0.7375
G/Gmax Mean (Fig. 4d, 2 µM CP1, 60 mV): 0.9406
G/Gmax Mean (Fig. 4d, 2 µM CP1, 80 mV): 1.0000
G/Gmax Mean (Fig. 4d, 2 µM CP1, -20 mV): 0.0874
G/Gmax Mean (Fig. 4d, 2 µM CP1, -40 mV): 0.0291
G/Gmax Mean (Fig. 4d, 2 µM CP1, -60 mV): 0.0147
G/Gmax Mean (Fig. 4d, 2 µM CP1, -80 mV): 0.0247
G/Gmax Mean (Fig. 4d, 2 µM CP1, -100 mV): 0.0692
